Marks after values point to notes of the source that are not given here.

In assay [1] the target is cloned mouse KCNQ2 (mKCNQ2) (Mus musculus, UniProt Q9Z351). In words: KCNQ oocyte two-electrode voltage clamp, KCNQ2-mediated outward current. Type of assay: cell-based. As to conditions: expressed as percent increase over KCNQ current in controls, Xenopus oocytes. As to the method:
The ability of compounds described in the present invention to open KCNQ channels and increase whole-cell outward (K^+) KCNQ-mediated currents was assessed under voltage-clamp conditions by determining their ability to increase cloned mouse KCNQ2 (mKCNQ2)-mediated, heteromultimeric KCNQ2/3 (KCNQ2/3)-mediated, and human KCNQ5 (hKCNQ5)-mediated outward currents heterologously expressed in Xenopus oocytes. Oocytes were prepared and injected using standard techniques; each oocyte was injected with approximately 50 nl of mKCNQ2, or hKCNQ5 cRNA. In the case of mKCNQ2/3 heteromultimeric channel expression, equal amounts (25-50 nL) of each cRNA were co-injected. […] Following injection, oocytes were maintained at 17° C. in ND96 medium consisting of (in mM): NaCl, 90; KCl, 1.0; CaCl2, 1.0; MgCl2, 1.0; HEPES, 5.0; pH 7.5. Horse serum (5%) and penicillin/streptomycin (5%) were added to the incubation medium. Recording commenced 2-6 days following mRNA injection. Prior to the start of an experiment oocytes were placed in a recording chamber and incubated in Modified Barth's Solution (MBS) consisting of (in mM): NaCl, 88; NaHCO3, 2.4; KCl, 1.0; HEPES, 10; MgSO4, 0.82; Ca(NO3)2, 0.33; CaCl2, 0.41; pH 7.5.
Oocytes were impaled with electrodes (1-2 MΩ) and standard 2-electrode voltage clamp techniques were employed to record whole-cell membrane currents. Recordings were accomplished using standard two-electrode voltage clamp techniques [Stuhmer et al., Methods in Enzymology, Vol. 207: 319-339 (1992)]. Voltage-clamp protocols typically consisted of a series of voltage steps 1-5 sec duration, in +10 mV steps from a holding potential of −90 mV to a maximal potential of +40 mV; records were digitized at 5 kHz and stored on a computer using pclamp data acquisition and analysis software (Axon Instruments). […]
(In general: Two-electrode voltage clamp holds a large cell at a set potential and records current.)

Assay [2] deals with SSS-stimulated trigeminal field response. As to the kind of experiment: In vivo electrophysiology: superior sagittal sinus (SSS)-stimulated trigeminal field response model of migraine. Details: species or system rat. An excerpt:
Male Long-Evans rats (Harlan, 250-400 g) were used in the experiments described in this example. Prior to testing, rats were allowed access to food and water ad libitum and were maintained on a 12:12-h light/dark cycle. Rats were group housed in an Association for Assessment and Accreditation of Laboratory Animal Care (AAALAC) accredited facility and cared for in strict compliance with all applicable regulations.
Rats were anesthetized with 1.2 g/kg i.p. urethane (#U-2500, Sigma Chemical Company, St. Louis, Mo.) and given supplemental urethane as needed. […]
Stimulated field responses were recorded in the trigeminal nucleus caudalis using Teflon coated stainless-steel microelectrodes (5 megaohms impedance, Frederick Haer, Brunswick, Me.) and amplified and filtered (0.1 Hz-10 kHz) using a differential amplifier (#IsoDAM8, World Precision Instruments, Sarasota, Fla.). […]
Three baseline measures (i.e., 100% of control), each consisting of 100 evoked trigeminal field potentials, were sampled prior to drug injection. […] Following injection of test substances, data were sampled for 1 hour, averaged into 5 minute bins (90 evoked potentials) and expressed as a percent change from average baseline values for the purposes of statistical analysis. Data were analyzed using repeated measures analyses of variance comparing vehicle and drug effects. […]

Sequence of cloned mouse KCNQ2 (mKCNQ2) (Q9Z351 whole entry): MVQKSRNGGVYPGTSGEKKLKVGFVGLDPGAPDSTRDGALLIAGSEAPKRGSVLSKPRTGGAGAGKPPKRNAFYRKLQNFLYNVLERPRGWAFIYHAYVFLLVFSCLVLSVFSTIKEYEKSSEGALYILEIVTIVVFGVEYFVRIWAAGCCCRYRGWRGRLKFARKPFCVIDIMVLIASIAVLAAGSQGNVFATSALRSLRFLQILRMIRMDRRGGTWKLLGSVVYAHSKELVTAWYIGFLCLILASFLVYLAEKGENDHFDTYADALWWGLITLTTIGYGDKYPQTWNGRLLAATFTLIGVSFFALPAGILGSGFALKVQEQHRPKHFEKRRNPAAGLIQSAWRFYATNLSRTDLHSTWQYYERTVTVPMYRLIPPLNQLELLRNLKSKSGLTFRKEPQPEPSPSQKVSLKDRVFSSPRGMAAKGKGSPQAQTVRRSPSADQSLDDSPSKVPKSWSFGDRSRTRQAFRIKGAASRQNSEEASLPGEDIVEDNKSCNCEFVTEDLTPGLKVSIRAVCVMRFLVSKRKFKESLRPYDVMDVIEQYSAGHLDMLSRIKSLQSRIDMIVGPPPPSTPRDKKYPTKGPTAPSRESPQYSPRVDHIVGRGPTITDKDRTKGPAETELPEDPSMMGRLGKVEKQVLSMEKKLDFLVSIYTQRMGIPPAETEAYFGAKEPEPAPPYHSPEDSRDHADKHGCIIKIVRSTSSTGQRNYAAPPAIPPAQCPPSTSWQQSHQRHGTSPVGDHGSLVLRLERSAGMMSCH

As for `O=C(NCc1ccc(F)cc1)c1cnc(N2CCOCC2)nc1C1CCCCC1` [Example 1, 4-Cyclohexyl-2-(morpholin-1-yl)-N-[(4-fluorophenyl)methyl]pyrimidine-5-carboxamide], the “KCNQ2 Current” value in assay [1] (at 20 μM) was “+++ (+++ = >200%)”.
On the same count and under the same terms, under `CCCc1nc(N2CCCC2)ncc1C(=O)NCc1ccc(F)cc1` [Example 9, 4-(1-Propyl)-2-(pyrrolidin-1-yl)-N-[(4-fluorophenyl)methyl]pyrimidine-5-carboxamide] stands “+++ (+++ = >200%)”; under `O=C(NCc1ccc(C(F)(F)F)cc1)c1cnc(NCc2ccc(Cl)cc2)nc1N1CCCC1` [Example 39, 2-[(4-Chlorophenyl)methylamino]-4-(pyrrolidin-1-yl)-N-[[4-(trifluoromethyl)phenyl]methyl]-pyrimidine-5-carboxamide], “+ (+ = 125-150%)”.
Same read-out and setting: under `O=C(NCc1ccc(F)cc1)c1cnc(N2CCCC2)nc1C1CCCCC1` [Example 4, 4-Cyclohexyl-2-(pyrrolidin-1-yl)-N-[(4-fluorophenyl)methyl]pyrimidine-5-carboxamide] stands “+++ (+++ = >200%)”.
Take `O=C(NCc1ccc(C(F)(F)F)cc1)c1cnc(N2CCCC2)nc1C(F)(F)F` [Example 19]: the “KCNQ2 Current” value in assay [1] (at 5 μM) is “++** (++ = 151-200%)”. Besides, the “decrease in field potential compared with vehicle” value in assay [2] (1 mg/kg i.v., 60 minutes following i.v. injection, rat SSS model of migraine, p=0.005) was found to be 25.2%. Besides, the “reduction in the SSS-stimulated trigeminal field response” value in assay [2] (i.v., rat, overall ANOVA p<0.001) is reported as “dose-dependent reduction”.
Regarding `O=C(NCc1ccc(C(F)(F)F)cc1)c1cnc(NCc2ccccc2)nc1N1CCCC1` [Example 37, 2-(Phenylmethylamino)-4-(pyrrolidin-1-yl)-N-[[4-(trifluoromethyl)phenyl]methyl]pyrimidine-5-carboxamide], the “KCNQ2 Current” value in assay [1] (at 20 μM) is reported as “++ (++ = 151-200%)”.

The values above are taken from patent publication US20020183335A1, “2, 4-disubstituted pyrimidine-5-carboxamide derivatives as KCNQ potassium channel modulators” (priority 2001, published 2002).
